The values below come from patent US10709667B2, “Hydrogel encapsulated cells and anti-inflammatory drugs” (Massachusetts Institute of Technology, priority 2011, dated 2020).

In experiment [1] the test system is C57/B6 mice with streptozotocin (STZ)-induced diabetes. Description: Transplantation of encapsulated rat islets into STZ-induced diabetic mice, daily blood glucose monitoring. Conditions: daily blood glucose over 2 months, marginal mass of islets, intraperitoneal, n=6-7. It is filed as in vivo.
Description: Alginate with high gluronic acid content SLG20 (Novamatrix, FMC Polymer, Drammen, Norway) was dissolved in sterile 0.9% (w/v) NaCl to give an alginate solution of 1.5% (w/v). To prepare hybrid drug-islet capsule, 1.5% (w/v) alginate was mixed with curcumin (Sigma Aldrich) at 0.3-1.0 mg/ml or with dexamethasone (Sigma Aldrich) at 1-2 mg/ml and stirred for 3-4 days to ensure that the drug is homogenously dispersed. During this mixing period, curcumin-alginate mixture was wrapped in aluminium foil to avoid light exposure which might oxidize this drug. One day after islet isolation, islets were washed twice with Ca-free Krebs and mixed with the alginate suspension with or without dispersed drug at a pre-cross-linking islet density of approximately 750-1000 islets/ml. […]
Male Sprague—Dawley rats, 200-250 g, also obtained from Charles River Laboratories, were used as islet donors. […] The mice were observed daily till after the final STZ injection when they are weighed and their blood glucose levels determined. Mice were confirmed diabetic if their non-fasted blood glucose level rose above 300 mg/dL for two consecutive daily readings. […]
Xenogeneic transplants of encapsulated rat islets to diabetic mice recipients were performed to examine the reversibility of diabetes. […] Shortly thereafter, islet-containing capsules were sampled in quadruplicate, the total islets number was counted. […]
The test system of another experiment is RAW 264.7 macrophages. Briefly: Co-culture of macrophages and encapsulated islets: macrophage proliferation. The settings on record: hybrid alginate capsules with 2 mg/ml dexamethasone or 1 mg/ml curcumin, 4 days co-culture. It is filed as cell-based. On the procedure:
(§1) RAW 264.7 macrophages were cultured in RPMI-1640 medium supplemented with 10% FBS, 100 units/ml penicillin and 100 μg/ml streptomycin (Invitrogen). The cells were sub-cultured every 2-3 days. 0.2 million macrophages in 3 ml of fresh culture medium were seeded into each well of a six-well tissue-culture treated polystyrene plate and allowed to adhere to the plate surface over night. The culture medium was removed and encapsulated islets were added in 3 ml of fresh medium to each well with adherent macrophages. Co-culturing of encapsulated islets with macrophages was maintained for four days. Afterwards, supernatant samples were collected and frozen at −20° C. for future insulin analysis with an insulin ELISA kit (ALPCO diagnostics). Encapsulated islets were collected into new plates. Both encapsulated islets and remaining adherent macrophages were washed in HEPES buffer and subjected to live-dead fluorescent staining (Invitrogen) for viability assessment.
(§2) An in vitro experiment was designed to test whether the presence of immune cells affects insulin secretion by islets. Hybrid alginate capsules containing islet cells and 2 mg/ml of dexamethasone or 1 mg/ml of curcumin were fabricated. Islet cells were encapsulated alone as a positive control. As a negative control, encapsulated islets were co-cultured with a macrophage cell line adherent to the plate's bottom. […]

Another experiment concerns encapsulated islets. It is filed as cell-based. The settings on record: hybrid alginate capsules with 2 mg/ml dexamethasone or 1 mg/ml curcumin, 4 days co-culture, FIG. 5. On the procedure:
as §1, §2

A further experiment relates to fibrosis on capsules. Briefly: Fibrosis formation on capsules retrieved 60 days after transplantation (observation, DNA fluorescent staining). Conditions: FIG. 9. It is filed as in vivo, mice.
Experiment [2] has as its system islet cells in retrieved capsules. Briefly: Insulin secretion from retrieved capsules. The format is in vivo. Conditions: 24 hours, FIG. 10.
Description: Sixty days after transplantation of islet-containing capsules, the mice from example 6 were sacrificed by CO2 asphyxiation. A lapratomy was performed to expose the abdominal cavity and capsules were retrieved by an abdominal lavage with HEPES buffer. The abdominal cavity was examined closely to identify remaining capsules, which if found were gently removed using atraumatic tweezers. The retrieved capsules were subsequently washed several times in HEPES buffer and imaged at 2× magnification using an EVOS brightfield microscope (AMG). Finally, capsules were transferred into a 1.5 ml Eppendorf tube, and frozen at −20° C. for future analysis. Insulin secretion was measured from the retrieved capsules for 24 hours.

Description for fibrosis on capsules: Sixty days after transplantation of islet-containing capsules, the mice from example 6 were sacrificed by CO2 asphyxiation. A lapratomy was performed to expose the abdominal cavity and capsules were retrieved by an abdominal lavage with HEPES buffer. The abdominal cavity was examined closely to identify remaining capsules, which if found were gently removed using atraumatic tweezers. The retrieved capsules were subsequently washed several times in HEPES buffer and imaged at 2× magnification using an EVOS brightfield microscope (AMG). Finally, capsules were transferred into a 1.5 ml Eppendorf tube, and frozen at −20° C. for future analysis.
50 μl of retrieved capsules (120-150 alginate capsules) were transferred to each well of a 24-well Millicell® cell culture insert (Millipore) using wide-orifice pipette tips (Fisher Scientific, Pittsburgh, Pa., USA). The capsules were incubated at 37° C. for 45 min in 800 μl of 0.001 mg/ml Hoersch 33342 dye (Invitrogen) prepared from stock solution by dilution with HEPES buffer. Afterwards, these capsules were washed four times with HEPES buffer. […] Finally, fluorescent signals from the stained capsules were obtained using a Tecan UV-VIS absorbance plate reader at with the excitation and emission wavelengths of 350 nm and 460 nm respectively.
A rigorous quantification technique was developed to assess fibrosis on capsules via DNA fluorescent staining. […]

On to `COc1cc(/C=C/C(=O)CC(=O)/C=C/c2ccc(O)c(OC)c2)ccc1O` [curcumin], for which the glycemic control result in experiment [1] is “improved glycemic control”. In addition, the macrophages proliferation result in the experiment on RAW 264.7 macrophages is reported as “hindered macrophages proliferation”. For the same molecule, the “insulin secretion from encapsulated islets co-cultured with macrophages” value in the experiment on encapsulated islets was “restored insulin secretion”. The “fibrosis by DNA fluorescence of retrieved capsules” value in the experiment on fibrosis on capsules is listed as “reduced fibrosis with statistical significance”. The “insulin secretion from retrieved capsules” value in experiment [2] is “greatly improved insulin secretion”.
